Reference: patent US6054435A, “6-O-substituted macrolides having antibacterial activity” (priority 1999, dated 2000)
Converted amounts (≈) assume the structure as drawn.

Assays:
Assay in all cases: in vitro antibacterial activity (MIC), agar dilution
Type in all cases: cell-based
[1] = system: Micrococcus luteus ATCC 4698; conditions: organism code PP; BHI agar, 35-37° C., 20 to 24 hours; unit assumed
Procedure, shortened: (§1)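 Plates of BHI agar were prepared with twelve aqueous dilutions of compound, then inoculated at 1:100 dilution, or 1:10 for slow growers like Streptococcus. After incubation they were inspected, and the lowest concentration yielding no growth, slight haze or sparse colonies was recorded as MIC.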

[2] = system: Streptococcus Pneumonia GYR 1171; conditions: organism code YY; BHI agar, 35-37° C., 20 to 24 hours; unit assumed
Procedure, shortened: (§2)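 Endpoint: lowest concentration with no growth, slight haze or sparsely isolated colonies at the inoculum spot, judged against a compound-free BHI control. Strains were replicator-inoculated at 1:100 (1:10 for Streptococcus and other slow growers).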

[3] = system: Streptococcus pyogenes 930; conditions: organism code MM; BHI agar, 35-37° C., 20 to 24 hours; unit assumed
Procedure, shortened: as §2

[4] = system: Staphylococcus aureus NCTC10649M; conditions: organism code EE; BHI agar, 35-37° C., 20 to 24 hours; unit assumed
Procedure, shortened: as §2

[5] = system: Escherichia coli JUHL; conditions: organism code QQ; BHI agar, 35-37° C., 20 to 24 hours; unit assumed
Procedure, shortened: as §2

[6] = system: Micrococcus luteus ATCC 9341; conditions: organism code OO; BHI agar, 35-37° C., 20 to 24 hours; unit assumed
Procedure, shortened: as §1

[7] = system: Streptococcus agalactiae CMX 508; conditions: organism code KK; BHI agar, 35-37° C., 20 to 24 hours; unit assumed
Procedure, shortened: as §2

[8] = system: Candida albicans CCH 442; conditions: organism code TT; BHI agar, 35-37° C., 20 to 24 hours; unit assumed
Procedure, shortened: as §2

[9] = system: Mycobacterium smegmatis ATCC 114; conditions: organism code UU; BHI agar, 35-37° C., 20 to 24 hours; unit assumed
Procedure, shortened: as §2

[10] = system: Streptococcus Pneumonia 5979; conditions: organism code ZZ; BHI agar, 35-37° C., 20 to 24 hours; unit assumed
Procedure, shortened: as §2

[11] = system: Staphylococcus aureus CMX 642A; conditions: organism code DD; BHI agar, 35-37° C., 20 to 24 hours; unit assumed
Procedure, shortened: as §2

[12] = system: Streptococcus Pneumonia ATCC6303; conditions: organism code XX; BHI agar, 35-37° C., 20 to 24 hours; unit assumed
Procedure, shortened: as §2

[13] = system: Nocardia Asteroides ATCC9970; conditions: organism code VV; BHI agar, 35-37° C., 20 to 24 hours; unit assumed
Procedure, shortened: as §2

[14] = system: Staphylococcus aureus A5177; conditions: organism code BB; BHI agar, 35-37° C., 20 to 24 hours; unit assumed
Procedure, shortened: as §2

[15] = system: Streptococcus pyogenes EES61; conditions: organism code LL; BHI agar, 35-37° C., 20 to 24 hours; unit assumed
Procedure, shortened: as §2

[16] = system: Streptococcus pyogenes PIU 2548; conditions: organism code NN; BHI agar, 35-37° C., 20 to 24 hours; unit assumed
Procedure, shortened: as §2

[17] = system: Staphylococcus aureus 1775; conditions: organism code GG; BHI agar, 35-37° C., 20 to 24 hours; unit assumed
Procedure, shortened: as §2

[18] = system: Haemophilis Influenzae DILL AMP R; conditions: organism code WW; BHI agar, 35-37° C., 20 to 24 hours; unit assumed
Procedure, shortened: as §2

[19] = system: Escherichia coli SS; conditions: organism code RR; BHI agar, 35-37° C., 20 to 24 hours; unit assumed
Procedure, shortened: as §2

[20] = system: Streptococcus bovis A-5169; conditions: organism code JJ; BHI agar, 35-37° C., 20 to 24 hours; unit assumed
Procedure, shortened: as §2

[21] = system: Staphylococcus epidermidis 3519; conditions: organism code HH; BHI agar, 35-37° C., 20 to 24 hours; unit assumed
Procedure, shortened: as §2

[22] = system: Staphylococcus aureus A-5278; conditions: organism code CC; BHI agar, 35-37° C., 20 to 24 hours; unit assumed
Procedure, shortened: as §2

[23] = system: Streptococcus Pneumonia 5649; conditions: organism code ZZA; BHI agar, 35-37° C., 20 to 24 hours; unit assumed
Procedure, shortened: as §2

[24] = system: Escherichia coli DC-2; conditions: organism code SS; BHI agar, 35-37° C., 20 to 24 hours; unit assumed
Procedure, shortened: as §2

[25] = system: Staphylococcus aureus ATCC 6538P; conditions: organism code AA; BHI agar, 35-37° C., 20 to 24 hours; unit assumed
Procedure, shortened: as §2

[26] = system: Enterococcus faecium ATCC 8043; conditions: organism code II; BHI agar, 35-37° C., 20 to 24 hours; unit assumed
Procedure, shortened: as §2

[27] = system: Staphylococcus aureus CMX 553; conditions: organism code FF; BHI agar, 35-37° C., 20 to 24 hours; unit assumed
Procedure, shortened: as §2

SMILES | MIC [1] [µg/mL] | MIC [2] [µg/mL] | MIC [3] [µg/mL] | MIC [4] [µg/mL] | MIC [5] [µg/mL] | MIC [6] [µg/mL] | MIC [7] [µg/mL] | MIC [8] [µg/mL] | MIC [9] [µg/mL] | MIC [10] [µg/mL] | MIC [11] [µg/mL] | MIC [12] [µg/mL] | MIC [13] [µg/mL] | MIC [14] [µg/mL] | MIC [15] [µg/mL] | MIC [16] [µg/mL] | MIC [17] [µg/mL] | MIC [18] [µg/mL] | MIC [19] [µg/mL] | MIC [20] [µg/mL] | also measured
CC[C@H]1OC(=O)[C@H](C)C(=O)[C@H](C)[C@@H](O[C@@H]2O[C@H](C)C[C@H](N(C)C)[C@H]2O)[C@](C)(OC/C=C/c2ccc3ncc(Br)cc3c2)C[C@@H](C)C(=O)[C@H](C)[C@H]2NC(=O)O[C@@]21C [Example 38] | 0.2 (≈ 0.237 µM) | 0.03 (≈ 0.0355 µM) | 3.1 (≈ 3.67 µM) | 0.2 (≈ 0.237 µM) | 100 (≈ 118 µM) | 0.05 (≈ 0.0592 µM) | 0.02 (≈ 0.0237 µM) | > 100 | 0.39 (≈ 0.462 µM) | 2 (≈ 2.37 µM) | 0.2 (≈ 0.237 µM) | 0.03 (≈ 0.0355 µM) | 0.05 (≈ 0.0592 µM) | 0.2 (≈ 0.237 µM) | 0.02 (≈ 0.0237 µM) | 0.2 (≈ 0.237 µM) | 100 (≈ 118 µM) | 2 (≈ 2.37 µM) | 0.78 (≈ 0.923 µM) | ≤ 0.005 | MIC [21]: 0.2 µg/mL (≈ 0.237 µM); MIC [22]: 100 µg/mL (≈ 118 µM); MIC [23]: 0.25 µg/mL (≈ 0.296 µM); MIC [24]: > 100 µg/mL; MIC [25]: 0.2 µg/mL (≈ 0.237 µM); MIC [26]: 0.05 µg/mL (≈ 0.0592 µM); MIC [27]: 0.2 µg/mL (≈ 0.237 µM)
CC[C@H]1OC(=O)[C@H](C)C(=O)[C@H](C)[C@@H](O[C@@H]2O[C@H](C)C[C@H](N(C)C)[C@H]2O)[C@](C)(OC/C=C/c2ccc3ncc(-c4ccco4)cc3c2)C[C@@H](C)C(=O)[C@H](C)[C@H]2NC(=O)O[C@@]21C [Example 39] | 0.2 (≈ 0.24 µM) | 0.03 (≈ 0.0361 µM) | 6.2 (≈ 7.45 µM) | 0.2 (≈ 0.24 µM) | > 100 | 0.02 (≈ 0.024 µM) | 0.01 (≈ 0.012 µM) | > 100 | 0.39 (≈ 0.469 µM) | 2 (≈ 2.4 µM) | 0.2 (≈ 0.24 µM) | 0.06 (≈ 0.0721 µM) | 0.1 (≈ 0.12 µM) | 0.2 (≈ 0.24 µM) | 0.01 (≈ 0.012 µM) | 0.2 (≈ 0.24 µM) | > 100 | 4 (≈ 4.81 µM) | 0.78 (≈ 0.937 µM) | 0.01 (≈ 0.012 µM) | MIC [21]: 0.2 µg/mL (≈ 0.24 µM); MIC [22]: > 100 µg/mL; MIC [23]: 0.25 µg/mL (≈ 0.3 µM); MIC [24]: > 100 µg/mL; MIC [25]: 0.2 µg/mL (≈ 0.24 µM); MIC [26]: 0.1 µg/mL (≈ 0.12 µM); MIC [27]: 0.2 µg/mL (≈ 0.24 µM)
CC[C@H]1OC(=O)[C@H](C)C(=O)[C@H](C)[C@@H](O[C@@H]2O[C@H](C)C[C@H](N(C)C)[C@H]2O)[C@](C)(OC/C=C/c2cncc(Br)c2)C[C@@H](C)C(=O)[C@H](C)[C@H]2NC(=O)O[C@@]21C [Example 40] | 0.2 (≈ 0.252 µM) | 0.015 (≈ 0.0189 µM) | 50 (≈ 62.9 µM) | 0.2 (≈ 0.252 µM) | 100 (≈ 126 µM) | 0.02 (≈ 0.0252 µM) | 0.02 (≈ 0.0252 µM) | > 100 | 0.39 (≈ 0.491 µM) | > 128 | 0.2 (≈ 0.252 µM) | 0.015 (≈ 0.0189 µM) | 0.1 (≈ 0.126 µM) | 0.2 (≈ 0.252 µM) | 0.02 (≈ 0.0252 µM) | 0.1 (≈ 0.126 µM) | > 100 | 4 (≈ 5.03 µM) | 0.39 (≈ 0.491 µM) | 0.02 (≈ 0.0252 µM) | MIC [21]: 0.2 µg/mL (≈ 0.252 µM); MIC [22]: > 100 µg/mL; MIC [23]: 0.25 µg/mL (≈ 0.315 µM); MIC [24]: 50 µg/mL (≈ 62.9 µM); MIC [25]: 0.1 µg/mL (≈ 0.126 µM); MIC [26]: 0.05 µg/mL (≈ 0.0629 µM); MIC [27]: 0.2 µg/mL (≈ 0.252 µM)
CC[C@H]1OC(=O)[C@H](C)C(=O)[C@H](C)[C@@H](O[C@@H]2O[C@H](C)C[C@H](N(C)C)[C@H]2O)[C@](C)(OC/C=C/c2cncc(-c3ncccn3)c2)C[C@@H](C)C(=O)[C@H](C)[C@H]2NC(=O)O[C@@]21C [Example 46] | 0.2 (≈ 0.252 µM) | 0.03 (≈ 0.0378 µM) | 12.5 (≈ 15.7 µM) | 0.2 (≈ 0.252 µM) | 50 (≈ 63 µM) | 0.05 (≈ 0.063 µM) | 0.02 (≈ 0.0252 µM) | > 100 | 6.2 (≈ 7.81 µM) | 128 (≈ 161 µM) | 0.2 (≈ 0.252 µM) | 0.03 (≈ 0.0378 µM) | 0.05 (≈ 0.063 µM) | 0.2 (≈ 0.252 µM) | 0.02 (≈ 0.0252 µM) | 0.2 (≈ 0.252 µM) | > 100 | 4 (≈ 5.04 µM) | 0.39 (≈ 0.491 µM) | 0.01 (≈ 0.0126 µM) | MIC [21]: 0.1 µg/mL (≈ 0.126 µM); MIC [22]: > 100 µg/mL; MIC [23]: 0.5 µg/mL (≈ 0.63 µM); MIC [24]: 100 µg/mL (≈ 126 µM); MIC [25]: 0.1 µg/mL (≈ 0.126 µM); MIC [26]: 0.05 µg/mL (≈ 0.063 µM); MIC [27]: 0.2 µg/mL (≈ 0.252 µM)
CC[C@H]1OC(=O)[C@H](C)C(=O)[C@H](C)[C@@H](O[C@@H]2O[C@H](C)C[C@H](N(C)C)[C@H]2O)[C@](C)(OC/C=C/c2cncc(-c3ccco3)c2)C[C@@H](C)C(=O)[C@H](C)[C@H]2NC(=O)O[C@@]21C [Example 50] | 0.1 (≈ 0.128 µM) | ≤ 0.004 | 12.5 (≈ 16 µM) | 0.1 (≈ 0.128 µM) | 25 (≈ 32 µM) | 0.01 (≈ 0.0128 µM) | 0.01 (≈ 0.0128 µM) | > 100 | 0.39 (≈ 0.499 µM) | 128 (≈ 164 µM) | 0.05 (≈ 0.0639 µM) | ≤ 0.004 | 0.05 (≈ 0.0639 µM) | 0.02 (≈ 0.0256 µM) | 0.02 (≈ 0.0256 µM) | 0.1 (≈ 0.128 µM) | > 100 | 2 (≈ 2.56 µM) | 0.39 (≈ 0.499 µM) | 0.01 (≈ 0.0128 µM) | MIC [21]: 0.05 µg/mL (≈ 0.0639 µM); MIC [22]: > 100 µg/mL; MIC [23]: 0.12 µg/mL (≈ 0.153 µM); MIC [24]: 50 µg/mL (≈ 63.9 µM); MIC [25]: 0.05 µg/mL (≈ 0.0639 µM); MIC [26]: 0.05 µg/mL (≈ 0.0639 µM); MIC [27]: 0.02 µg/mL (≈ 0.0256 µM)
